Patent publication US4062934A, “X-ray contrast media” (Laboratoires Andre Guerbet, priority 1975, dated 1977)

Experiments:
[1] = Osmolality of aqueous solutions containing 28% iodine; assay type: physicochemical; conditions: aqueous solution
[2] = system: mice; experiment: LD50, I.V., in mice; assay type: in vivo; conditions: aqueous solution containing 28% iodine
[3] = Neurotoxicity, intra-cerebral injection in mice (technique according to Haley and MacCornick); conditions: mouse, in vivo, 700 mg/kg, at 700 mg I/kg, read-out: Neurotoxicity: death rate, intra-cerebral injection in mice
Text: **Technique according to Haley and MacCornick (British Journal

[4] = Neurotoxicity, intra-cisternal injection in rats (technique according to E. Melartin); conditions: in vivo, at 50 mg I/rat, read-out: Neurotoxicity: death rate, intra-cisternal injection in rats
Text: *Technique according to E. Melartin (Investigative Radiology, 1970, 5, 1,

[5] = Viscosity of aqueous solution; assay type: physicochemical; conditions: 25 g iodine per 100 ml, 37° C
Description: The product is dissolved in water at a concentration of 25 g iodine per 100 ml. The solution has a viscosity of 7.4 centipoises at 37° C.

Structure (SMILES) | Osmolality [1] [mosm/kg] | LD50, I.V., in mice [2] [g I/kg] | mortality [3] [%] | mortality [4] [%] | viscosity [5] [centipoises]
CC(=O)N(C)c1c(I)c(NC(=O)[C@H](O)[C@@H](O)[C@H](O)[C@H](O)CO)c(I)c(C(=O)NNC(=O)c2c(I)c(NC(=O)[C@H](O)[C@@H](O)[C@H](O)[C@H](O)CO)c(I)c(N(C)C(C)=O)c2I)c1I [II, N,N'-bis(2,4,6-triiodo-3-N-methyl-N-acetylamino-5-N-gluconylamino-benzoyl)hydrazide] | 204 | 6 |  |  | 
CC(=O)N(C)c1c(I)c(NC(=O)[C@H](O)[C@@H](O)[C@H](O)[C@H](O)CO)c(I)c(C(=O)N(C)N(C)C(=O)c2c(I)c(NC(=O)[C@H](O)[C@@H](O)[C@H](O)[C@H](O)CO)c(I)c(N(C)C(C)=O)c2I)c1I [III, N,N'-bis(2,4,6-triiodo-3-N-methyl-N-acetylamino-5-N-gluconylamino-benzoyl)dimethyl hydrazide] | 140 | 9 |  |  | 
CC(=O)N(C)c1c(I)c(NC(=O)[C@H](O)[C@@H](O)[C@H](O)[C@H](O)CO)c(I)c(C(=O)NCCNC(=O)c2c(I)c(NC(=O)[C@H](O)[C@@H](O)[C@H](O)[C@H](O)CO)c(I)c(N(C)C(C)=O)c2I)c1I [I, 1,2-N,N'-bis(2,4,6-triiodo-3-N-methyl-N-acetylamino-5-N-gluconylamino-benzoyl)-diamino-ethane] | 200 | 15 | 0 | 0 | 7.4
